Assay results as given in patent US10570180B2, “Anti-bacterial agents and their use in therapy” (priority 2015, dated 2020).
In brackets after ≈: the same amount, converted by molar mass. Read-outs that look alike come from different tables or passages of the source. Ends that are not written are not given here.

Tests used:
E. faecium CTC 492 = assay: MIC assay of antibiotics with ATX-101; assay type: cell-based, Enterococcus faecium; details: Enterococcus faecium, CTC492, E. faecium CTC 492, read-out: Est MIC
Description: (§1) The minimum inhibitory concentration (MIC) of ATX-101 (SEQ ID NO: 1289) was determined for various gram negative and gram positive bacteria. The bacteria, Pseudomonas aeruginosa ATCC 15692, Acinetobacter baumenni ATCC 19600, Escherichia coli ATCC 25922, Pseudomonas aeruginosa TO-5A (clinical isolate), Enterococous faecium CCUG 37832, Enterococcus faecium CTC 492, Micrococcus luteus ATCC 9341 and Escherichie coli NCIMB 12210 were grown in the presence of various concentrations of ATX-101 and/or antibiotic.
(§2) ATX-101 was dissolved in Mueller-Hinton broth to 1.25 times of the desired assay concentration. Antibiotics were dissolved in Mueller-Hinton broth and Mueller-Hinton broth with ATX-101 at a concentration of 1.25 times the highest desired assay concentrations. Antibiotics were pharmaceutical grade purchased from Sigma-Aldrich.
(§3) Two-fold serial dilutions of antibiotics were made in Mueller-Hinton with different concentrations of ATX-101, and the solutions were placed in four parallel wells is Nunc 384-well micro plates (30 μl per well in Nunc 242757 microplates). A group of 8 wells with no addition of antibiotics for each ATX-101 concentration was included on each micro plate as a growth reference.
(§4) At the day of analysis, overnight TSB cultures inoculated from freeze stocks (6 ml in 50 ml tube tilted to 45-degrees angle, 200 rpm, 2.5 cm amplitude, 37° C.) were diluted in TSB until the OD800 was 0.10, and further diluted 1:40 in Mueller-Hinton broth. Each well in the 384-well assay plates was inoculated with 7.5 μl of the diluted culture, giving the same dilution of the culture in the assay cultures. The microplates were placed in plastic bags and incubated without shaking at 37° C. The optical density at 600 nm in the microwells was measured after approximately 19 hours of incubation, and the relative growth yield was calculated based on the growth in the reference groups. The MIC value was set to the highest concentration giving less than 30% growth in all 4 parallel wells within the sample groups. The microplates were further incubated for 6 hours, and optical density in the cultures was measured once more for confirmation of the estimated MIC-values.
as §2, with “The APIM peptide was” for “ATX-101 was”, “with APIM” for “with ATX-101”
as §3, with “APIM,” for “ATX-101,”, “in” for “is”, “APIM” for “ATX-101”, “as” for “as a”
as §4, with “inoculated” for “inoculated from”, “OD600” for “OD800”, “culture.” for “culture, giving the same dilution of the culture in the assay cultures.”, “yield in each well” for “yield”

A. baumanii ATCC 19606 = assay: MIC assay of antibiotics with ATX-101; assay type: cell-based; details: for MIC: Acinetobacter baumannii, ATCC19606, A. baumanii ATCC 19606, read-out: Est MIC; for Est MIC: A. baumanii ATCC 19606
Description: as §2, with “The APIM peptide was” for “ATX-101 was”, “with APIM” for “with ATX-101”
as §3, with “APIM,” for “ATX-101,”, “in” for “is”, “APIM” for “ATX-101”, “as” for “as a”
as §4, with “inoculated” for “inoculated from”, “OD600” for “OD800”, “culture.” for “culture, giving the same dilution of the culture in the assay cultures.”, “yield in each well” for “yield”

E. coli NCIMB 12210 = assay: MIC assay of antibiotics with ATX-101; assay type: cell-based, Escherichia coli; details: Escherichia coli, NCIMB12210, E. coli NCIMB 12210, read-out: Est MIC
Description: as §1, §2, §3, §4
as §2, with “The APIM peptide was” for “ATX-101 was”, “with APIM” for “with ATX-101”
as §3, with “APIM,” for “ATX-101,”, “in” for “is”, “APIM” for “ATX-101”, “as” for “as a”
as §4, with “inoculated” for “inoculated from”, “OD600” for “OD800”, “culture.” for “culture, giving the same dilution of the culture in the assay cultures.”, “yield in each well” for “yield”

E. faecium TO-12 = assay type: cell-based
Description: as §2, §3, §4
(§5) The MICS for various APIM peptides were determined for various bacteria, as described above.

[1] = test system: Staphylococcus aureus NCTC 6571; assay type: cell-based; details: NCTC 6571
Description: as §2, §3, §4, §5

[2] = test system: Staphylococcus aureus MRSA 1040s; assay: microbe, parasite or virus in culture; assay type: cell-based; details: for MIC of Erythromycin (Relative values): concentration of APIM peptide 15 μg/ml, MRSA 1040s
Description: as §2, §3, §4
as §2, with “The APIM peptide was” for “ATX-101 was”, “with APIM” for “with ATX-101”
as §3, with “APIM,” for “ATX-101,”, “in” for “is”, “APIM” for “ATX-101”, “as” for “as a”
as §4, with “inoculated” for “inoculated from”, “OD600” for “OD800”, “culture.” for “culture, giving the same dilution of the culture in the assay cultures.”, “yield in each well” for “yield”
In view of the anti-bacterial effect of ATX-101 on strains of MRSA, the MIC for a variety of APIM variants was determined using Staphylococcus aureus MRSA 1040s. […] A cell penetrating peptide (SEQ ID NO: 337) present in all of the APIM peptides, was used as a negative control.
Next, the effect of APIM peptides on the MIC of antibiotics was determined using Staphylococcus aureus MRSA 1040s.
as §5

[3] = test system: E. faecium CCUG 37832 (TO-3); assay type: cell-based, Enterococcus faecium; details: CCUG 37832
Description: as §2, §3, §4
Accordingly, concentrations of 8 μg/ml and 16 μg/ml of ATX-101 were combined with various antibiotics selected from; 2,4-Diamin, S. methizol, S. methoxa, S. dimetho, Surfaceta, Trimeth, Flumeq, Levoflox, Pruliflox, Metronid and Nitrofur.
as §5

Row | Compound | MIC (E. faecium CTC 492; APIM (ATX-101) conc. 6.5 μg/ml) | MIC (E. faecium CTC 492; APIM (ATX-101) conc. 13 μg/ml) | MIC (E. faecium CTC 492; APIM conc. 0 μg/ml) | MIC (E. faecium TO-12) | MIC [1] | MIC [3] | other results
1 | C[C@@H](O)[C@H]1C(=O)N2C(C(=O)O)=C(SCCN=CN)C[C@H]12 [Imipenem] | 2 µg/mL (≈ 6.68 µM) | 2 µg/mL (≈ 6.68 µM) | 4 µg/mL (≈ 13.4 µM) | – | – | – | MIC (A. baumanii ATCC 19606; APIM (ATX-101) conc. 2 μg/ml): 0.125 µg/mL (≈ 0.418 µM); MIC (A. baumanii ATCC 19606; APIM (ATX-101) conc. 4 μg/ml): 0.125 µg/mL (≈ 0.418 µM); MIC (A. baumanii ATCC 19606; APIM conc. 0 μg/ml): 0.25 µg/mL (≈ 0.835 µM)
2 | O=C(N[C@H](CO)[C@H](O)c1ccc([N+](=O)[O-])cc1)C(Cl)Cl [Chloramphenicol] | 2 µg/mL (≈ 6.19 µM) | 1 µg/mL (≈ 3.09 µM) | 2 µg/mL (≈ 6.19 µM) | – | – | – | MIC (E. coli NCIMB 12210; APIM (ATX-101) conc. 2 μg/ml): 2 µg/mL (≈ 6.19 µM); MIC (E. coli NCIMB 12210; APIM (ATX-101) conc. 4 μg/ml): 2 µg/mL (≈ 6.19 µM); MIC (E. coli NCIMB 12210; APIM (ATX-101) conc. 8 μg/ml): 1 µg/mL (≈ 3.09 µM); MIC (E. coli NCIMB 12210; APIM conc. 0 μg/ml): 2 µg/mL (≈ 6.19 µM)
3 | CN[C@@H]1[C@@H](O[C@H]2O[C@H](CO)[C@@H](N)[C@H](O)[C@H]2O)OC2C[C@@H](N)[C@@H](O[C@H]3[C@H](O)[C@@H](O)[C@H](N)C[C@@H]3N)OC2[C@@H]1O (some centres unmarked) [Apramycin] | 64 µg/mL (≈ 119 µM) | 32 µg/mL (≈ 59.3 µM) | 64 µg/mL (≈ 119 µM) | – | – | – | –
4 | CC[C@@]1([C@@H]2O[C@@H]([C@H]3O[C@@](O)(CO)[C@H](C)C[C@@H]3C)C[C@@H]2C)CC[C@H]([C@]2(C)CC[C@]3(C[C@H](O)[C@@H](C)[C@@H]([C@@H](C)[C@@H](OC)[C@H](C)C(=O)O)O3)O2)O1 [Monensin] | 0.5 µg/mL (≈ 0.745 µM) | 0.5 µg/mL (≈ 0.745 µM) | 1 µg/mL (≈ 1.49 µM) | – | – | – | MIC (A. baumanii ATCC 19606; APIM (ATX-101) conc. 2 μg/ml): 64 µg/mL (≈ 95.4 µM); MIC (A. baumanii ATCC 19606; APIM (ATX-101) conc. 4 μg/ml): 64 µg/mL (≈ 95.4 µM); MIC (A. baumanii ATCC 19606; APIM (ATX-101) conc. 8 μg/ml): 32 µg/mL (≈ 47.7 µM); MIC (A. baumanii ATCC 19606; APIM conc. 0 μg/ml): 64 µg/mL (≈ 95.4 µM)
5 | MDRFSLKWKKKRKIRRRRRRRRRRR [SEQ ID NO: 1304] | – | – | – | 25.3 µM | 37.9 µM | 7.5 µM | MIC ([2]; 1040s): 7.5 µM
6 | Gentamicin | – | – | – | – | – | – | Est MIC (A. baumanii ATCC 19606; APIM (ATX-101) conc. 2 μg/ml): 16 µg/mL; Est MIC (A. baumanii ATCC 19606; APIM (ATX-101) conc. 4 μg/ml): 8 µg/mL; Est MIC (A. baumanii ATCC 19606; APIM conc. 0 μg/ml): 16 µg/mL
7 | MDRWLSKWKKKRKIRRRRRRRRRRR [SEQ ID NO: 1302] | – | – | – | 16.8 µM | 37.9 µM | 7.5 µM | MIC of Erythromycin (Relative values) [2]: 200
8 | MDRWLTKWKKKRKIRRRRRRRRRRR [SEQ ID NO: 1300] | – | – | – | 25.3 µM | 37.9 µM | 7.5 µM | MIC of Erythromycin (Relative values) [2]: 100
